{"source": "patent US6911418B2", "about": "“Method for treating a subterranean formation” (Schlumberger Technology Corporation, priority 2001, dated 2005)", "test": "pH resulting from the aqueous mixture", "type": "physicochemical", "conditions": "20 percent tetrasodium, 28 percent dipotassium, 21 percent diammonium mixtures", "procedure": "Calcium carbonate was stirred into each mixture until saturation was achieved. The amount of calcium carbonate dissolution was then determined by inductively coupled plasma."}
{"substance": "tetrasodium ethylenediamine tetraacetate", "values": [{"measurement": "pH of aqueous mixture", "value": "about 12"}]}
